From patent publication US20020028938A1, “Prostaglandin endoperoxide H synthase biosynthesis inhibitors” (priority 1997, published 2002)

Experiments:
[1] = target: T1, recombinant human Cox-1 (r-hu Cox1) (Homo sapiens, UniProt P23219); assay: Recombinant human PGHS-1 enzyme assay (RHUCX1); format: biochemical; conditions: read-out: RHUCX1 % Inh. at Dose
T1 construct: made in house; host or cells: baculovirus/Sf9 insect cells (microsomes)
Outline: (§1)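 Recombinant enzyme reaction ran 2.5 minutes at room temperature, then was quenched with HCl and neutralized with NaOH. PGE2 formed with and without drug was quantified by EIA against standards in the same milieu. Percent inhibition versus control mean; IC50 by linear regression.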

[2] = target: T2, recombinant human Cox-2 (r-hu Cox-2) (Homo sapiens, UniProt P35354); assay: Recombinant human PGHS-2 enzyme assay (RHUCX2); format: biochemical; conditions: for inhibition at 10 µM / inhibition at 0.01 µM / inhibition at 0.1 µM / inhibition at 1 µM: read-out: RHUCX2 % Inh. at Dose; for IC50: read-out: RHUCX2 IC50 (parenthetical value)
T2 construct: made in house; host or cells: baculovirus/Sf9 insect cells (microsomes)
T2 sequence (P35354 18-604): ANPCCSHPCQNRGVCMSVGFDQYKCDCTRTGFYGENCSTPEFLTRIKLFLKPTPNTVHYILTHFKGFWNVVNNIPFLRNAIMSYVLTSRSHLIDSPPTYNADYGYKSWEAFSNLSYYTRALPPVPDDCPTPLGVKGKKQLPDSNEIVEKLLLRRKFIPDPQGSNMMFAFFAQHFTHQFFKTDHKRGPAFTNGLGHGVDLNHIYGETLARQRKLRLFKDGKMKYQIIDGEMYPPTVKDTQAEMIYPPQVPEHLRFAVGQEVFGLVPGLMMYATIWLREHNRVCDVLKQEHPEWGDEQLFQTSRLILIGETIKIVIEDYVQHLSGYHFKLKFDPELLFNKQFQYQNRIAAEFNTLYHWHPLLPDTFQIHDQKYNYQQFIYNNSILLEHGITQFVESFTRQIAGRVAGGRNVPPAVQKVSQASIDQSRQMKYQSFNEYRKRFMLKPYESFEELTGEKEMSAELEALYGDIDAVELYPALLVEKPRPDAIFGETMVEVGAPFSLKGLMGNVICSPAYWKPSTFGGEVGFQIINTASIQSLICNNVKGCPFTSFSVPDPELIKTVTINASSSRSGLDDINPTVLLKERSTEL
Outline: as §1

T1 sequence (P23219 24-599): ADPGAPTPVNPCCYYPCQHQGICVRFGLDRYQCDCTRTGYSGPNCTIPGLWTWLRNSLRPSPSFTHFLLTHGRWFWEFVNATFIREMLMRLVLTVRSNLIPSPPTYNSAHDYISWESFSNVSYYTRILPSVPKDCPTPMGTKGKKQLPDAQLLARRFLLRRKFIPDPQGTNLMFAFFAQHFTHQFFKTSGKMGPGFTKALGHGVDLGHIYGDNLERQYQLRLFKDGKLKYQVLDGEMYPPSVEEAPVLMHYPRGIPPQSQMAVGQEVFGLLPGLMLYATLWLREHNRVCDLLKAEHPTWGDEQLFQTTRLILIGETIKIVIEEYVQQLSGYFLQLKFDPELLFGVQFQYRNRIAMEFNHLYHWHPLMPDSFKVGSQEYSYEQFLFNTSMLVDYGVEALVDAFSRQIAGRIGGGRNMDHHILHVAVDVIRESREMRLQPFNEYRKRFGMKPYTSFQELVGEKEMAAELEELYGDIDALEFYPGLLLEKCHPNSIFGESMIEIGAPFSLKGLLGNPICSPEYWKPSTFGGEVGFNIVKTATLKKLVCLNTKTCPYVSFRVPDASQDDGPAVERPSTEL

inhibition at 100 µM [1] | melting point | inhibition at 10 µM [2] | IC50 [2] | inhibition at 0.01 µM [2] | inhibition at 0.1 µM [2] | inhibition at 1 µM [2] | inhibition at 10 µM [1] | inhibition at 1 µM [1] | Structure (SMILES)
6% | 120 to 122 °C | 34% |  |  |  |  |  |  | CCCCC(CC)COc1c(-c2ccc(S(C)(=O)=O)cc2)cnn(-c2ccc(F)cc2)c1=O (centres unmarked) [Example 178, 2-(4-Fluorophenyl)-4-(2-ethyl-1-hexyloxy)-5-[4-(methylsulfonyl)phenyl]-3(2H)-pyridazinone]
18% | 289 to 294 °C |  | 526 nM |  |  |  |  |  | CS(=O)(=O)c1ccc(-c2cnn(-c3cc(Cl)cc(Cl)c3)c(=O)c2-c2ccc(F)cc2)cc1 [Example 188, 2-(3,5-Dichlorophenyl)-4-(4-fluorophenyl)-5-[4-(methylsulfonyl)phenyl]-3-(2H)-pyridazinone]
4% | 180 to 182 °C |  | 215 nM |  |  |  |  |  | CS(=O)(=O)c1ccc(-c2cnn(-c3ccc(F)cc3)c(=O)c2Cc2ccccc2)cc1 [Example 230, 2-(4-Fluorophenyl)-4-benzyl-5-[4-(methylsulfonyl)phenyl]-3(2H)-pyridazinone]
23% | 80 to 83 °C |  | 24 nM |  |  |  |  |  | CS(=O)(=O)c1ccc(-c2cnn(-c3ccc(F)c(F)c3)c(=O)c2C2CCCCC2)cc1 [Example 232, 2-(3,4-Difluorophenyl)-4-cyclohexyl-5-[4-(methylsulfonyl)phenyl]-3(2H)-pyrdazinone]
0% | 190 to 192 °C |  | 328 nM |  |  |  |  |  | Cc1ccc(-c2c(-c3ccc(S(C)(=O)=O)cc3)cnn(-c3ccc(F)c(F)c3)c2=O)cc1 [Example 234]
22% | 166 to 168 °C |  | 210 nM |  |  |  |  |  | Cc1cc(-c2c(-c3ccc(S(C)(=O)=O)cc3)cnn(-c3ccc(F)c(F)c3)c2=O)ccc1F [Example 235, 2-(3,4-Difluorophenyl)-4-(4-fluoro-3-methylphenyl)-5-[4-(methylsulfonyl)phenyl]-3(2H)-pyridazinone]
14% | 215 to 218 °C |  | 297 nM |  |  |  |  |  | CS(=O)(=O)c1ccc(-c2cnn(CC(F)(F)F)c(=O)c2C2CCCCC2)cc1 [Example 240, 2-(2,2,2-Trifluoroethyl)-4-cyclohexyl-5-[4-(methylsulfonyl)phenyl]-3(2H)-pyridazinone]
6% | 101 to 103 °C |  |  | 43% | 68% | 98% |  |  | CS(=O)(=O)c1ccc(-c2cnn(-c3ccc(F)c(Cl)c3)c(=O)c2Cc2cccc(F)c2)cc1 [Example 249, 2-(3-Chloro-4-fluorophenyl)-4-(3-fluorobenzyl)-5-[4-(methylsulfonyl)phenyl]-3(2H)-pyridazinone]
77% | 199 to 202 °C |  | 272 nM |  |  |  | 29% |  | NS(=O)(=O)c1ccc(-c2cnn(-c3ccc(F)cc3)c(=O)c2Cc2cccc(F)c2)cc1 [Example 253, 2-(4-Fluorophenyl)-4-(3-fluorobenzyl)-5-[4-(aminosulfonyl)phenyl]-3(2H)-pyridazinone]
7% | 211 to 213 °C |  |  |  | 48% | 84% |  |  | CS(=O)(=O)c1ccc(-c2cnn(-c3ccc(F)c(F)c3)c(=O)c2C#Cc2ccccc2)cc1 [Example 254, 2-(3,4-Difluorophenyl)-4-(phenylethynyl)-5-[4-(methylsulfonyl)phenyl]-3(2H)-pyridazinone]
8% | 191 to 193 °C | 53% |  |  | 33% | 48% |  |  | CS(=O)(=O)c1ccc(-c2cnn(CC(F)(F)F)c(=O)c2Oc2cccnc2)cc1 [Example 265, 2-(2,2,2-Trifluoroethyl)-4-(3-pyridyloxy)-5-[4-(methylsulfonyl)phenyl]-3(2H)-pyridazinone]
7% | 192 to 194 °C |  |  | 47% | 52% | 71% |  |  | CS(=O)(=O)c1ccc(-c2cnn(-c3ccc(F)c(F)c3)c(=O)c2Oc2ccc(Cl)cc2)cc1 [Example 281, 2-(3,4-Difluorophenyl)-4-(4-chlorophenoxy)-5-[4-(methylsulfonyl)phenyl]-3(2H)-pyridazinone]
0% | 80 to 100 °C | 79% |  |  | 46% | 66% |  |  | CS(=O)(=O)c1ccc(-c2cnn(-c3ccc(F)cc3)c(=O)c2N2CCCCC2)cc1 [Example 355, 2-(4-Fluorophenyl)-4-(1-piperidinyl)-5-[4-(methylsulfonyl)phenyl]-3(2H)-pyridazinone]
0% | 183 to 185 °C |  |  |  | 48% | 70% |  |  | CS(=O)(=O)c1ccc(-c2cnn(-c3cccc(Cl)c3)c(=O)c2Cc2ccc(F)cc2)cc1 [Example 369, 2-(3-Chlorophenyl)-4-(4-fluorobenzyl)-5-[4-(methylsulfonyl)phenyl]-3(2H)-pyridazinone]
8% | 204 to 206 °C |  | 166 nM |  |  |  |  |  | Cc1ccc(-c2c(-c3ccc(S(C)(=O)=O)cc3)cnn(-c3ccc(F)c(F)c3)c2=O)cc1F [Example 371, 2-(3,4-Difluorophenyl)-4-(3-fluoro-4-methylphenyl)-5-[4-(methylsulfonyl)phenyl]-3(2H)-pyridazinone]
0% | 142 to 145 °C | 94% |  |  | 59% | 88% |  |  | CS(=O)(=O)c1ccc(-c2cnn(-c3cccc(Cl)c3)c(=O)c2CCc2ccccc2)cc1 [Example 372, 2-(3-Chlorophenyl)-4-(phenethyl)-5-[4-(methylsulfonyl)phenyl]-3(2H)-pyridazinone]
2% | 110 to 113 °C |  | 20 nM |  |  |  |  |  | CS(=O)(=O)c1ccc(-c2cnn(-c3cccc(Cl)c3)c(=O)c2OCc2ccccc2)cc1 [Example 374, 2-(3-Chlorophenyl)-4-(benzyloxy)-5-[4-(methylsulfonyl)phenyl]-3(2H)-pyridazinone]
58% | 198 to 200 °C |  |  | 58% | 63% | 83% |  | 47% | Cc1ccc(-c2c(-c3ccc(S(N)(=O)=O)cc3)cnn(-c3ccc(F)c(F)c3)c2=O)cc1F [Example 386, 2-(3,4-Difluorophenyl)-4-(3-fluoro-4-methylphenyl)-5-[4-(aminosulfonyl)phenyl]-3(2H)-pyridazinone]
 | 243 to 245 °C |  | 221 nM |  |  |  |  | 89% | Cc1cc(-c2c(-c3ccc(S(N)(=O)=O)cc3)cnn(-c3ccc(F)c(F)c3)c2=O)ccc1F [Example 402, 2-(3,4-Difluorophenyl)-4-(4-fluoro-3-methylphenyl)-5-[4-(aminosulfonyl)phenyl]-3(2H)-pyridazinone]
 | 178 to 180 °C |  | 9 nM |  |  |  | 96% | 81% | CS(=O)(=O)c1ccc(-c2cnn(-c3cccc(Cl)c3)c(=O)c2Oc2cccc(F)c2)cc1 [Example 411, 2-(3-Chlorophenyl)-4-(3-fluorophenoxy)-5-[4-(methylsulfonyl)phenyl]-3(2H)-pyridazinone]
0% | 139 to 140 °C |  | 110 nM |  |  |  |  |  | CC(C)CCCOc1c(-c2ccc(S(C)(=O)=O)cc2)cnn(-c2cccc(Cl)c2)c1=O [Example 413]
29% | 112 to 115 °C |  | 323 nM |  |  |  |  |  | CC(C)CCCc1c(-c2ccc(S(C)(=O)=O)cc2)cnn(-c2ccc(F)cc2)c1=O [Example 420, 2-(4-Fluorophenyl)-4-(4-methylpentyl)-5-[4-(methylsulfonyl)phenyl]-3(2H)-pyridazinone]
0% | 113 to 115 °C |  |  | 36% | 68% | 87% |  |  | CC(C)=CCOc1c(-c2ccc(S(C)(=O)=O)cc2)cnn(-c2cccc(Cl)c2)c1=O [Example 423, 2-(3-Chlorophenyl)-4-(3-methyl-2-butenoxy)-5-[4-(methylsulfonyl)phenyl]-3(2H)-pyridazinone]
12% | 109 to 111 °C |  |  | 31% | 69% |  |  |  | C=C(C)CCOc1c(-c2ccc(S(C)(=O)=O)cc2)cnn(-c2ccc(F)cc2)c1=O [Example 425, 2-(4-Fluorophenyl)-4-(3-methyl-3-butenoxy)-5-[4-(methylsulfonyl)phenyl]-3(2H)-pyridazinone]
